According to US5395947A, “Platinum(II) complex and processes for preparing the same” (Sunkyong Industries, Ltd., priority 1991, dated 1995):

Experiments:
[1] = tested on: murine leukemia L1210 cells; test: Growth inhibition test on cultured murine leukemia L1210 cells; type: cell-based; details: 48 hours, 37° C., Trypan blue viability
Protocol: 1. Growth inhibition test on cultured murine leukemia L1210 cells
Murine leukemia L1210 cells(1×10^5) were treated with various concentrations of the compounds prepared in the above examples in RPMI 1640 medium supplemented with 10% fetal calf serum, and cultured in a 5% CO2 humidified incubator at 37° C. for 48 hours. Their viability, estimated by staining with 0.17% Trypan blue, was compared with that of control cells cultured in the identical medium without the compounds.

murine leukemia L1210 = test: Antitumor activity test on murine leukemia L1210 in vivo; design: species or system male BDF1 mice; details: days 1, 5, 9
Protocol: 2. Antitumor activity test on murine leukemia L1210 in vivo
Murine leukemia L1210 cells were maintained in the peritoneal cavities of 6-week-old male DBA/2 mice by weekly transfer in accordance with the procedure described in cancer chemotherapy Reports, Part 3, 3(2), 7 (1972). Specifically, 1×10^6 leukemia cells were inoculated into the abdominal cavities of 6-week-old male BDF1 mice weighing 21±3 g on day 0. Each treatment group consisted of seven mice. The test compounds were dissolved or suspended in 0.5% carboxymethyl cellulose(CMC)solution (in water) and were administered intraperitoneally on days 1, 5, and 9 relative to the tumor inoculation.
Thirty mice of 6-week-old male BDF1 weighing 21±3 g were used as the control group, which were injected with 0.5% CMC solution only in the same manner as above.
Anti-tumor activities of the compounds were evaluated in terms of the T/C % values calculated from the mean survival time(T) of the compound-treated group over that(C) of the control group. [formula]

[2] = Test for water solubility; type: physicochemical; details: 20° C.
Description: 3. Test for water solubility
A standard plot of UV absorbance(220 nm) vs. concentration was made; and employed to determine water-solubility.
The mixture was then passed through a 0.45 micron disposable membrane filter before dilution and UV measurement.

Row | SMILES | IC50 (concentration required for 50% inhibition of growth) [1] | T/C (%) (murine leukemia L1210; 12.5 mg/kg i.p.) | T/C (%) (murine leukemia L1210; 25 mg/kg i.p.) | T/C (%) (murine leukemia L1210; 50 mg/kg i.p.) | Solubility in water [2] | T/C (%) (murine leukemia L1210; 3.1 mg/kg i.p.) | T/C (%) (murine leukemia L1210; 6.2 mg/kg i.p.) | T/C (%) (murine leukemia L1210; 100 mg/kg i.p.)
1 | O=C1CC(=O)[O][Pt-2]2([NH2+]CC3OC4(CCCC4)OC3C[NH2+]2)[O]1 [Example 39, cis-malonato[(4R,5R)-4,5-bis(aminomethyl)-1,3-dioxolane-2-spiro-1'-cyclopentane]platinum(II)] | 0.31 µg/mL | 217% | 169% | 203% | – | – | – | –
2 | NC[C@@H]1OC2(CCCCC2)O[C@H]1CN.O=C1[O][Pt][O]C(=O)C12CCC2 [Example 46, cis-cyclobutane-1,1-dicarboxylato[(4S, 5S)-4,5-bis(aminomethyl)-1,3-dioxolane-2-spiro-1'-cyclohexane]platinum(II)] | 2.23 µg/mL | – | – | – | 900 µg/mL | – | – | –
3 | CC1OC2C[NH2+][Pt-2]3([NH2+]CC2O1)[O]C(=O)CC(=O)[O]3 [Example 34, cis-malonato[(4R,5R)-4,5-bis(aminomethyl)-2-methyl-1,3-dioxolane]platinum(II)] | 0.60 µg/mL | 140% | 156% | 241% | – | – | – | –
4 | NC[C@H]1OCO[C@@H]1CN.O=C1C[O][Pt][O]1 [Example 1, (glycolato-O,O')[(4R,5R)-4,5-bis(aminomethyl)-1,3-dioxolane]platinum(II)] | 0.36 µg/mL | 137% | 160% | toxic | – | 95% | 132% | –
5 | CC1(C)OC2C[NH2+][Pt-2]3([NH2+]CC2O1)[O]C(=O)CC(=O)[O]3 [Example 36, cis-malonato[(4R,5R)-4,5-bis(aminomethyl)-2,2-dimethyl-1,3-dioxolane]platinum(II)] | 0.76 µg/mL | 133% | 179% | 190% | – | – | – | –
6 | CC1O[C@H](CN)[C@@H](CN)O1.O=C1C[O][Pt][O]1 [Example 5, (glycolato-O,O')[(4R,5R)-4,5-bis(aminomethyl)-2-methyl-1,3-dioxolane]platinum(II)] | 0.35 µg/mL | 154% | – | toxic | – | 104% | 136% | –
7 | CC1[O][Pt][O]C1=O.NCC1OCOC1CN [Example 13, (L-lactato-O,O')[(4R,5R)-4,5-bis(aminomethyl)-1,3-dioxolane]platinum(II)] | 0.55 µg/mL | 178% | 207% | 92% | – | – | – | –
8 | CC1(C)C(=O)[O][Pt-2]2([NH2+]CC3OC4(CCCC4)OC3C[NH2+]2)[O]C1=O [Example 42, cis-dimethylmalonato[(4R,5R)-4,5-bis(aminomethyl)-1,3-dioxolane-2-spiro-1'-cyclopentane]platinum(II)] | 0.54 µg/mL | – | 172% | 160% | – | – | – | 150%
